From PMC3364214, “Role of Operon aaoSo-mutT in Antioxidant Defense in Streptococcus oligofermentans” (PLoS ONE, 2012)

Molecular target: T1, MutT (Streptococcus cristatus, UniProt A0ABN4B3E2)
T1 construct: gene I872_01330; mutT (453 bp fragment) in NcoI-XhoI of pET-28a, His6-tag fusion (C-terminal by the primers), E. coli BL21(DE3) pLysS, Histrap purified; tag removal not mentioned
T1 sequence (A0ABN4B3E2 1-151): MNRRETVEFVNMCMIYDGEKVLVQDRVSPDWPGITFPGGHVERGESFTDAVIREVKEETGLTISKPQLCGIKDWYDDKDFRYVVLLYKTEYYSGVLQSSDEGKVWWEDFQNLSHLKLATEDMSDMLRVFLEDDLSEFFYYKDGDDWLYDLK
Assay: HPLC of 8-oxo-dGTP degradation (UV […] nm)
Type: biochemical
Settings: 100 uM substrate, 100 nM MutT, 5 mM MgCl2, 100 mM Tris-HCl pH 9.0, 5% glycerol, 37 C, 20 min

Nc1nc2c([nH]c(=O)n2[C@H]2C[C@H](O)[C@@H](COP(=O)(O)OP(=O)(O)OP(=O)(O)O)O2)c(=O)[nH]1 [8-oxo-dGTP]
HPLC of 8-oxo-dGTP degradation (UV 293 nm): reduction of 8-oxo-dGTP levels was detected in the reaction mixture by HPLC
